The target of test [1] is full-length human PLD1 (Homo sapiens (Human), UniProt Q13393). Put plainly: Evaluation of human PLD1 enzyme inhibitory activity (Amplex Red / choline oxidase fluorescence). The class given is biochemical. Particulars: full-length human PLD1 enzyme; read-out: PLD1 IC50. How it is done: A method for measuring human PLD1 enzyme inhibitory activity using an enzyme in which a FLAG-tag is added to the N-terminus of full-length human PLD1 (1-1036 amino acids) is shown below.
(§1) DNA fragment in which a FLAG-tag sequence is added to the 5′-end of full-length human PLD1 was amplified by PCR method, using commercially available human PLD1 gene (Promega KK) as a template. The amplified DNA fragment was fused with vector pVL1393 for baculovirus production (Pharmingen) digested with BamHI and EcoRI, using In-Fusion HD Cloning Kit (Takara Bio). The full-length human PLD1-expression plasmid DNA for baculovirus was isolated from Escherichia coli DH5a (TOYOBO) transformed with the obtained In-Fusion reaction product. Next, DNA fragment in which a FLAG-tag sequence is added to the 5′-end of full-length human PLD1 was amplified by PCR method, using the full-length human PLD1-expression plasmid DNA for baculovirus as a template. The amplified DNA fragment was fused with a DNA fragment in which a linker sequence is introduced into pcDNA3.4-TOPO (Life Technologies), using In-Fusion HD Cloning Kit (Takara Bio). The full-length human PLD1-expression plasmid DNA for animal cells was isolated from Escherichia coli DH5a transformed with the obtained In-Fusion reaction product. The base sequence of the full-length human PLD1 cloned into vector was determined by a Dye Terminator method using BigDye Terminator v3.1 Cycle Sequencing Kit (Applied Biosystems). The determined sequence was a sequence in which the FLAG-tag sequence was inserted at the 5′-end of the full-length human PLD1 (GenBank Accession Number: NM_001130081).
(§2) Expi293F cells (Life Technologies) were cultured with shaking using Expi293 Expression Medium (Life Technologies) as a medium at 37° C. in the presence of 8% CO2. The gene introduction reagent PEI was prepared by dissolving Polyethylenimine Max (nominally MW 40,000) (Polysciences) in MilliQ water, adjusting the pH of the solution to 7.0 with NaOH to obtain a 1 mg/mL solution, and then filtering the solution through 0.22 μm filter. The full-length human PLD1-expression plasmid DNA for animal cells was transfected into Expi293F cells using PEI, and after 48 hours of shaking culture, the cells were collected and stored at −80° C.
(§3) To the full-length human PLD1-expressed cells was added a Homogenate buffer (20 mmol/L Na-phosphate pH 7.5, 250 mmol/L NaCl, 1 mmol/L MgCl2, 1% β-OG, 0.05 mmol/L DTT+complete EDTA-free (Roche Diagnostics K.K.)), and the cells were lysed by Microfluidizer Processor M-110EH (Mizuho Kogyo Co., Ltd.). The lysate was centrifuged at 10,100×g at 4° C. for 15 minutes, and the supernatant was collected and filtered through 0.45 μm filter. To the centrifuged supernatant was added ANTI-FLAG M2 Affinity Gel (SIGMA-Aldrich) resin equilibrated with a Homogenate buffer, and the mixed solution was stirred at 4° C. for 1 hr or more. The mixed solution was loaded onto Poly-Prep column, and the resin was washed with a Wash buffer (20 mmol/L Na-phosphate pH 7.5, 150 mmol/L NaCl, 1 mmol/L MgCl2, 0.02% Triton, 0.05 mmol/L DTT). A Wash buffer containing 400 μg/mL DYKDDDDK Peptide (Scrum Inc.) was added to the column to elute the protein bound to the resin. The eluted fractions were subjected to SDS-PAGE followed by CBB staining to identify the fractions containing the full-length human PLD1. The eluted fractions of the full-length human PLD1 were collected and concentrated using Amicon Ultra-15 100k (Merck Millipore). The concentrated fractions were collected, flash-frozen in liquid nitrogen and stored at −80° C.
(§4) A DMSO or test substance solution (the DMSO final concentration: 5%) prepared by diluting DMSO or test substance with an Assay buffer (50 mmol/L HEPES pH 7.5, 80 mmol/L KCl, 3 mmol/L EGTA, 3.6 mmol/L MgCl2, 0.01% NP-40, 0.1% BSA), and the solution was added to a 384 well Assay Plate (Black, Polystyrene, Non-Treated, Cat No. 3573, Corning) by 5 μL/well. […]

The target of test [2] is full-length human PLD2 (Homo sapiens (Human), UniProt O14939). Put plainly: Evaluation of human PLD2 enzyme inhibitory activity (Amplex Red / choline oxidase fluorescence). In kind it is biochemical. Particulars: full-length human PLD2 enzyme; read-out: PLD2 IC50. How it is done:
A method for measuring human PLD2 enzyme inhibitory activity using an enzyme in which a FLAG-tag is added to the N-terminus of full-length human PLD2 (1-933 amino acids) is shown below.
as §1, with “PLD2” for “PLD1”, “PLD2-expression” for “PLD1-expression”, “NM 002663).” for “NM_001130081).”
as §2, with “PLD2-expression” for “PLD1-expression”
as §3, with “PLD2-expressed” for “PLD1-expressed”, “PLD2.” for “PLD1.”, “PLD2” for “PLD1”
as §4

Usually IC50 stands for the concentration that gives 50% inhibition.

Sequence of full-length human PLD2 (O14939 whole entry, the tested form may be a part): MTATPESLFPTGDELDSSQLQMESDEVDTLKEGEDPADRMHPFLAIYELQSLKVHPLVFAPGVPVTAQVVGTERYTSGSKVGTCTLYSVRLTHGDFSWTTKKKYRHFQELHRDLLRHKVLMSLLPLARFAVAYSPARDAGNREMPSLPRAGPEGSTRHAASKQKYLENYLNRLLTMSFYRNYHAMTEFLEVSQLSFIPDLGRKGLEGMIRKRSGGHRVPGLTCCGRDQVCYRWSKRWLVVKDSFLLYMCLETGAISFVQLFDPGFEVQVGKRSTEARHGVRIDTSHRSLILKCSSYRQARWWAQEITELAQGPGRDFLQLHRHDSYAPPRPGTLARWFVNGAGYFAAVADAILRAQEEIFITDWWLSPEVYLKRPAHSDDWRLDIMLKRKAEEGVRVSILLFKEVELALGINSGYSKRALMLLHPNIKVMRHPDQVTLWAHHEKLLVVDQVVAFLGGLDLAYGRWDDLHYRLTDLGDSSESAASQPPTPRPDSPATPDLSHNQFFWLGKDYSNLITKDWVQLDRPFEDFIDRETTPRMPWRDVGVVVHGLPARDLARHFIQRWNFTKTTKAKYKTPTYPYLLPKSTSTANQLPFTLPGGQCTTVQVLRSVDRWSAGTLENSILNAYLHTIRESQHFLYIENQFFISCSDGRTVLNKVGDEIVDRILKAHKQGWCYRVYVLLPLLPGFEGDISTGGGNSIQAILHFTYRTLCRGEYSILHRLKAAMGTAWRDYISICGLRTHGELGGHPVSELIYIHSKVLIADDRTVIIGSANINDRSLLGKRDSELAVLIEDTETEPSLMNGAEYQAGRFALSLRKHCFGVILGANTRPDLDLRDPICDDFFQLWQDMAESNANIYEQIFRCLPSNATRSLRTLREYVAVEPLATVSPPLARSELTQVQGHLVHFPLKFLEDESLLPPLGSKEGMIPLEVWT
Sequence of full-length human PLD1 (Q13393 other isoform, or with tags, fused parts or gaps): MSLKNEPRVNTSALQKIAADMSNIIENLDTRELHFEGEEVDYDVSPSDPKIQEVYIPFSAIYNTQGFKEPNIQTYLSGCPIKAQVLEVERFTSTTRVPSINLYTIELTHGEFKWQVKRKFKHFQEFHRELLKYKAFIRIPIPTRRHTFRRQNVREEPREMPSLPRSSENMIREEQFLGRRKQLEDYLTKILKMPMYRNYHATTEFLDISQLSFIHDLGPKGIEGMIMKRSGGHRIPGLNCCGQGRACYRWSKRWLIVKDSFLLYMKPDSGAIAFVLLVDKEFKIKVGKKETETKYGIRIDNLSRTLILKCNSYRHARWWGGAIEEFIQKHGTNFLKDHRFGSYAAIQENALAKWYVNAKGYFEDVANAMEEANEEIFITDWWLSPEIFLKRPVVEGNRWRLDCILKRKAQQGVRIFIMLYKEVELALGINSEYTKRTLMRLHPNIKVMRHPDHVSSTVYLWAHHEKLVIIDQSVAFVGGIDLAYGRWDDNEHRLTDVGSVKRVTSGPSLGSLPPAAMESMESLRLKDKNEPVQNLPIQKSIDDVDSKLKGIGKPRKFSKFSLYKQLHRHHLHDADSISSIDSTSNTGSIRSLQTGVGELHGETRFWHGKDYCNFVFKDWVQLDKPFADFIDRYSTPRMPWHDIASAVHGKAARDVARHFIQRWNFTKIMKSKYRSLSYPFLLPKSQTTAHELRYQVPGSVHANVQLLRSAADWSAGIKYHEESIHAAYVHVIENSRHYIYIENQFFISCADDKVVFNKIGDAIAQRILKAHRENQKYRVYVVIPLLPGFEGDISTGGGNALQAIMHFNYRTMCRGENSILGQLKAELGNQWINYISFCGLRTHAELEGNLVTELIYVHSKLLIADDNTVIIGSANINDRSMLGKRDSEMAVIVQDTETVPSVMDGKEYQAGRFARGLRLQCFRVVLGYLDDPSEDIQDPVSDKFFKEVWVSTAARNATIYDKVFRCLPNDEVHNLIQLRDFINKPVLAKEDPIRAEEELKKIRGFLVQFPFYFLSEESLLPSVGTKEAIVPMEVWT

For the compound `C[C@@H](CN1CCC2(CC1)OC(=O)NN=C2c1cc(C#N)ccc1Cl)NC(=O)[C@H](O)C(F)(F)F` [Example 2-009], the concentration for half-maximal inhibition (IC50) was found to be 2150 nM in test [1] and 1040 nM in test [2].

Regarding `CNC(=O)C(=O)N[C@@H](C)C[C@H]1CC[C@]2(CC1)OC(=O)NN=C2c1ccc(C#N)cc1Cl` [Example 175], the IC50 in test [1] amounted to 21 nM; in test [2], 15 nM.

With `CNC(=O)C(=O)N[C@@H](C)C[C@H]1CC[C@]2(CC1)OC(=O)NN=C2c1cn(CC(F)F)nc1I` [Example 2-058], the values for the IC50 in test [1] and in test [2] were 26 nM and 66 nM, respectively.

Consider `C[C@@H](CN1CCC2(CC1)OC(=O)NN=C2c1ccc(F)cc1Cl)NC(=O)c1ncn[nH]1` [Example 95], for which the results for the IC50 in test [1] and in test [2] were 8060 nM and 6160 nM, respectively.

As for `C[C@@H](C[C@H]1CC[C@]2(CC1)OC(=O)NN=C2c1ccc(F)cc1Br)NC(=O)CC#N` [Example 41], the values for the IC50 in test [1] and in test [2] were 229 nM and 500 nM, respectively.

Take `CNC(=O)C(=O)N[C@@H](C)C[C@H]1CC[C@]2(CC1)OC(=O)NN=C2c1ccc(F)cc1C1CC1` [Example 64]: the half-inhibitory concentration (IC50) in test [1] is 18 nM; in test [2] it was less than 10 nM.

`CNC(=O)C(=O)N[C@@H](C)C[C@H]1CC[C@]2(CC1)OC(=O)NN=C2c1ccccc1Br` [Example 26]: the IC50 in test [1] and in test [2] was less than 10 nM in each case.

Consider `C[C@@H](C[C@H]1CC[C@]2(CC1)OC(=O)NN=C2c1ccc(F)cc1Br)NC(=O)C1(F)CC1` [Example 35], for which the half-inhibitory concentration (IC50) in test [1] stood at 257 nM; in test [2], 367 nM.

With `CNC(=O)C(=O)N[C@@H](C)C[C@H]1CC[C@]2(CC1)OC(=O)NN=C2c1cnc(N2C[C@@H]3C[C@H]2CO3)cc1C` [Example 268], the concentration for half-maximal inhibition (IC50) was 30 nM in test [1] and less than 10 nM in test [2].

With `Cc1ccncc1C1=NNC(=O)O[C@]12CC[C@@H](C[C@H](C)NC(=O)c1nc3ccccc3[nH]1)CC2` [Example 146], the 50% inhibitory concentration (IC50) in test [1] was 20 nM; in test [2], less than 10 nM.

As for `COc1cc(C)c(C2=NNC(=O)O[C@]23CC[C@@H](C[C@H](C)NC(=O)N2CCc4ncccc4C2)CC3)cn1` [Example 264], the 50% inhibitory concentration (IC50) in test [1] is 36 nM; in test [2], less than 10 nM.

Regarding `COc1cc(C)c(C2=NNC(=O)O[C@]23CC[C@@H](C[C@H](C)NC(=O)N2CCn4nccc4C2)CC3)cn1` [Example 237], the 50% inhibitory concentration (IC50) in test [1] was 34 nM; in test [2], less than 10 nM.

Take `CNC(=O)C(=O)N[C@@H](C)C[C@H]1CC[C@]2(CC1)OC(=O)NN=C2c1cnc(N2CC(C(F)(F)F)C2)cc1C` [Example 192]: the 50% inhibitory concentration (IC50) in test [1] is 21 nM; in test [2], less than 10 nM.

As to `C[C@@H](CN1CCC2(CC1)OC(=O)NN=C2c1ccc(S(C)(=O)=O)cc1Cl)NC(=O)c1cc2cc(F)ccc2o1` [Example 116], the IC50 in test [1] was 43 nM; in test [2] it was 37 nM.

Turning to `Cc1cc(F)ccc1C1=NNC(=O)O[C@]12CC[C@@H](C[C@H](C)NC(=O)N1CCc3ccccc3C1)CC2` [Example 155], the IC50 in test [1] is 14 nM; in test [2], less than 10 nM.

`Cc1cc(C(=O)N[C@@H](C)C[C@H]2CC[C@]3(CC2)OC(=O)NN=C3c2cccc(OC(F)F)c2Br)[nH]n1` [Example 307]: the IC50 in test [1] was 13 nM; in test [2], less than 10 nM.

With `CNC(=O)C(=O)N[C@@H](C)CN1CCC2(CC1)OC(=O)NN=C2c1ccc(Br)cc1C(F)(F)F` [Example 328], the IC50 in test [1] is 48 nM; in test [2], 34 nM.

As to `Cc1cc(C(=O)N[C@@H](C)C[C@H]2CC[C@]3(CC2)OC(=O)NN=C3c2ccc(C#N)cc2Cl)[nH]n1` [Example 176], the IC50 in test [1] and in test [2] was 29 nM each time.

Consider `Cc1cc(C(=O)N[C@@H](C)C[C@H]2CC[C@]3(CC2)OC(=O)NN=C3c2ccc(Br)cc2)[nH]n1` [Example 22], for which the IC50 in test [1] was 66 nM; in test [2], 49 nM.

Regarding `CNC(=O)C(=O)N[C@@H](C)CN1CCC2(CC1)OC(=O)NN=C2c1cc(C(=O)N(C)C)ccc1Br` [Example 2-038], the IC50 in test [1] is 60 nM; in test [2] it was 11 nM.

Consider `COc1cc(C)c(C2=NNC(=O)O[C@]23CC[C@@H](C[C@H](C)NC(=O)CC#N)CC3)cn1` [Example 263], for which the IC50 in test [1] is 2780 nM; in test [2] it was 4500 nM.

As for `C[C@@H](C[C@H]1CC[C@]2(CC1)OC(=O)NN=C2c1ccc(OCC(C)(C)O)cc1Br)NC(=O)c1cc2ccccc2o1` [Example 132], the figures for the IC50 in test [1] and in test [2] were 14 nM and less than 10 nM, respectively.

With `Cc1cc(C(=O)N[C@@H](C)CN2CCC3(CC2)OC(=O)NN=C3c2cc(Br)c(F)cc2Cl)[nH]n1` [Example 2-016], the results for the half-inhibitory concentration (IC50) in test [1] and in test [2] were 19 nM and less than 10 nM, respectively.
